Data published in US9783849B2, “Method for identifying immunoreactive peptides” (immatics biotechnologies GmbH, priority 2002, dated 2017).

Legend:
[1] = test system: CD8+ T-lymphocytes (PBMC); test: staining of PBMC with HLA-A*0201 tetramers, flow cytometry; type: cell-based, human
Excerpt: Peripheral blood mononuclear cells (in the following PBMC) from two healthy donors (HDI and HD2), which were serologically typed as CMV-positive, were isolated by gradient centrifugation (FicoLite H) and frozen.
HLA-A *0201 tetrameric complexes were produced as described by Altman et al., 1996, Phenotypic analysis of antigen-specific T-lymphocytes, Science 274: 94-96, as follows: The HLA-A2-binding peptides used for the refolding were […] (SEQ ID NO: 1) from keratin 18 and […] (SEQ ID NO: 2) from pp65 HCMVA. Tetramers were assembled by mixing biotinylated monomers with streptavidin-PE or streptavidin-APC and 2-3×10^6 cells were incubated 30 min at 4° C. with both tetramers: 10 μg/ml for each monomer in PBS, 0.01% NaN3, 2 mM EDTA, 50% fetal calf serum). Then, monoclonal antibodies Anti-CD4-FITC (Coulter-Immunotech) and Anti-CD8-PerCP (Becton Dickinson) were added for 20 min. After three washes, samples were fixed in FACS buffer, 1% formaldehyde. Four-color analysis was performed on a FACScalibur cytometer (Becton Dickinson).
Staining of PBMC of tumor patients and healthy individuals with HLA-A*0201 tetramers was performed with tetramers reconstituted either with adipophilin, keratin 18 or met-proto-oncogene.
Dot plots show samples from one of three independent experiments for 1×10^6 PBMC. In the plots, percentage of tetramer^+-cells within the CD8^+ CD4^− population are indicated.

[2] = test system: CD8+ T-cells (PBMC from HLA-A2 positive renal cell carcinoma patients); test: quantitative PCR assay of γ-Interferon-mRNA production after 7 day in vitro sensitization with peptide; type: cell-based, human; conditions: PBMC from 6 HLA-A2 positive renal cell carcinoma patients
Description: PBMC from 6 HLA-A2 positive renal cell carcinoma patients were tested for reaction against four of the relevant peptides: HLA-A*02-restricted ligands from adipophilin, keratin 18, K1AA0367 and met-proto-oncogene. In doing so, a very sensitive quantitative PCT assay was carried out to detect γ-Interferon-mRNA production by CD8^+ T-cells following a 7 day-in vitro-sensitization with peptide.

| Sequence | staining of the keratin 18-specific CD8+ population with the tetramer ([1]; simultaneous staining with HLA-A2/keratin 18-PE and HLA-A2/CMV-APC tetramers, specificity control) | γ-Interferon-mRNA production by CD8+ T-cells (response to peptide) [2] | healthy individuals in whom a significant specific CD8+ T-lymphocyte population was found ([1]; HLA-A*0201 tetramer staining of PBMC of healthy individuals) |
| --- | --- | --- | --- |
| NLVPMVATV [CMV tetramer, reference compound] | did not stain | – | – |
| YVDPVITSI (listed as Homo sapiens) [met-proto-oncogene, HLA-A*02-restricted ligand derived from met proto-oncogene] | – | Sporadic responses | – |
| ALLNIKVKL (listed as Homo sapiens) [keratin 18] | – | Sporadic responses | 4 out of 22 |
| SVASTITGV (listed as Homo sapiens) [adipophilin, HLA-A*02-restricted ligand from adipophilin] | – | Sporadic responses | – |
